Experimental data taken from patent publication US12077503B2, “Substituted cyclic amides and their use as herbicides” (FMC CORPORATION, priority 2015, dated 2024).

Assays:
Format in all cases: in vivo
[1] = test system: barnyardgrass (Echinochloa crus-galli); assay: Test G Post-Emergence Protocol; details: Echinochloa crus-galli, post-emergence, 312 h, read-out: Barnyardgrass damage rating; for pest or weed control at 15.625 g/ha: 15.625 g ai/ha, evaluated after 13 days (100=total damage to plant; 0=no damage to plant); for pest or weed control at 62.5 g/ha: 62.5 g ai/ha; for pest or weed control at 62.5 g/ha / pest or weed control at 250 g/ha: evaluated after 13 days, 100=total damage to plant, 0=no damage to plant; for pest or weed control at 250 g/ha: 250 g ai/ha
Method in brief: (§1)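 Eight days post-sowing, plants received a spray of test compound (acetone/water 50:50, 0.5% Tween 20) at 15.625, 62.5 or 250 g/ha. Glasshouse regime thereafter: 24/16 °C, 14 h light, 65% humidity. Assessment after 13 days on a 0–100 damage scale.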

[2] = test system: giant foxtail (Setaria faberi); assay: Test G Post-Emergence Protocol; details: Setaria faberi, post-emergence, 312 h, read-out: Foxtail, Giant damage rating; for pest or weed control at 15.625 g/ha: 15.625 g ai/ha, evaluated after 13 days (100=total damage to plant; 0=no damage to plant); for pest or weed control at 62.5 g/ha: 62.5 g ai/ha; for pest or weed control at 62.5 g/ha / pest or weed control at 250 g/ha: evaluated after 13 days, 100=total damage to plant, 0=no damage to plant; for pest or weed control at 250 g/ha: 250 g ai/ha
Method in brief: as §1

[3] = test system: velvetleaf (Abutilon theophrasti); assay: Test G Post-Emergence Protocol; details: Abutilon theophrasti, post-emergence, 312 h, read-out: Velvetleaf damage rating; for pest or weed control at 15.625 g/ha: 15.625 g ai/ha, evaluated after 13 days (100=total damage to plant; 0=no damage to plant); for pest or weed control at 62.5 g/ha: 62.5 g ai/ha; for pest or weed control at 62.5 g/ha / pest or weed control at 250 g/ha: evaluated after 13 days, 100=total damage to plant, 0=no damage to plant; for pest or weed control at 250 g/ha: 250 g ai/ha
Method in brief: as §1

[4] = test system: ivy-leaved morning glory (Ipomoea hederacea); assay: Test G Post-Emergence Protocol; details: Ipomoea, post-emergence, 312 h, read-out: Morningglory, Ivy-leaved damage rating; for pest or weed control at 15.625 g/ha: 15.625 g ai/ha, evaluated after 13 days (100=total damage to plant; 0=no damage to plant); for pest or weed control at 62.5 g/ha: 62.5 g ai/ha; for pest or weed control at 62.5 g/ha / pest or weed control at 250 g/ha: evaluated after 13 days, 100=total damage to plant, 0=no damage to plant; for pest or weed control at 250 g/ha: 250 g ai/ha
Method in brief: as §1

[5] = test system: redroot pigweed (Amaranthus retroflexus); assay: Test G Post-Emergence Protocol; details: Amaranthus retroflexus, post-emergence, 312 h, read-out: Pigweed, Redroot damage rating; for pest or weed control at 15.625 g/ha: 15.625 g ai/ha, evaluated after 13 days (100=total damage to plant; 0=no damage to plant); for pest or weed control at 62.5 g/ha: 62.5 g ai/ha; for pest or weed control at 62.5 g/ha / pest or weed control at 250 g/ha: evaluated after 13 days, 100=total damage to plant, 0=no damage to plant; for pest or weed control at 250 g/ha: 250 g ai/ha
Method in brief: as §1

corn (Zea mays) [6] = assay: Test G Post-Emergence Protocol; details: Zea mays, post-emergence, 312 h, read-out: Corn damage rating; for plant injury at 15.625 g/ha: 15.625 g ai/ha, evaluated after 13 days (100=total damage to plant; 0=no damage to plant); for plant injury at 62.5 g/ha: 62.5 g ai/ha; for plant injury at 62.5 g/ha / plant injury at 250 g/ha: evaluated after 13 days, 100=total damage to plant, 0=no damage to plant; for plant injury at 250 g/ha: 250 g ai/ha
Method in brief: as §1

[7] = test system: barnyardgrass (Echinochloa crus-galli); assay: Test G Pre-Emergence Protocol; details: Echinochloa crus-galli, pre-emergence, 312 h, evaluated after 13 days; for pest or weed control at 15.625 g/ha: 15.625 g ai/ha; for pest or weed control at 15.625 g/ha / pest or weed control at 250 g/ha: read-out: Barnyardgrass damage rating (100=total damage to plant; 0=no damage to plant); for pest or weed control at 62.5 g/ha: 62.5 g ai/ha, 100=total damage to plant, 0=no damage to plant, read-out: Barnyardgrass damage rating; for pest or weed control at 250 g/ha: 250 g ai/ha
Method in brief: (§2)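 Pre-emergence spray, 15.625/62.5/250 g/ha, vehicle acetone:water 50:50 + 0.5% Tween 20, applied 1 d after sowing. Glasshouse 24/16° C, 14 h light, 65% RH, watered twice daily. Visual damage rating at 13 d, 0–100 scale.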

[8] = test system: giant foxtail (Setaria faberi); assay: Test G Pre-Emergence Protocol; details: Setaria faberi, pre-emergence, 312 h, evaluated after 13 days; for pest or weed control at 15.625 g/ha: 15.625 g ai/ha; for pest or weed control at 15.625 g/ha / pest or weed control at 250 g/ha: read-out: Foxtail, Giant damage rating (100=total damage to plant; 0=no damage to plant); for pest or weed control at 62.5 g/ha: 62.5 g ai/ha, 100=total damage to plant, 0=no damage to plant, read-out: Foxtail, Giant damage rating; for pest or weed control at 250 g/ha: 250 g ai/ha
Method in brief: as §2

[9] = test system: velvetleaf (Abutilon theophrasti); assay: Test G Pre-Emergence Protocol; details: Abutilon theophrasti, pre-emergence, 312 h, evaluated after 13 days; for pest or weed control at 15.625 g/ha: 15.625 g ai/ha; for pest or weed control at 15.625 g/ha / pest or weed control at 250 g/ha: read-out: Velvetleaf damage rating (100=total damage to plant; 0=no damage to plant); for pest or weed control at 62.5 g/ha: 62.5 g ai/ha, 100=total damage to plant, 0=no damage to plant, read-out: Velvetleaf damage rating; for pest or weed control at 250 g/ha: 250 g ai/ha
Method in brief: as §2

[10] = test system: ivy-leaved morning glory (Ipomoea hederacea); assay: Test G Pre-Emergence Protocol; details: Ipomoea, pre-emergence, 312 h, evaluated after 13 days; for pest or weed control at 15.625 g/ha: 15.625 g ai/ha; for pest or weed control at 15.625 g/ha / pest or weed control at 250 g/ha: read-out: Morningglory, Ivy-leaved damage rating (100=total damage to plant; 0=no damage to plant); for pest or weed control at 62.5 g/ha: 62.5 g ai/ha, 100=total damage to plant, 0=no damage to plant, read-out: Morningglory, Ivy-leaved damage rating; for pest or weed control at 250 g/ha: 250 g ai/ha
Method in brief: as §2

[11] = test system: redroot pigweed (Amaranthus retroflexus); assay: Test G Pre-Emergence Protocol; details: Amaranthus retroflexus, pre-emergence, 312 h, evaluated after 13 days; for pest or weed control at 15.625 g/ha: 15.625 g ai/ha; for pest or weed control at 15.625 g/ha / pest or weed control at 250 g/ha: read-out: Pigweed, Redroot damage rating (100=total damage to plant; 0=no damage to plant); for pest or weed control at 62.5 g/ha: 62.5 g ai/ha, 100=total damage to plant, 0=no damage to plant, read-out: Pigweed, Redroot damage rating; for pest or weed control at 250 g/ha: 250 g ai/ha
Method in brief: as §2

corn (Zea mays) [12] = assay: Test G Pre-Emergence Protocol; details: Zea mays, pre-emergence, 312 h, evaluated after 13 days; for plant injury at 15.625 g/ha: 15.625 g ai/ha; for plant injury at 15.625 g/ha / plant injury at 250 g/ha: read-out: Corn damage rating (100=total damage to plant; 0=no damage to plant); for plant injury at 62.5 g/ha: 62.5 g ai/ha, 100=total damage to plant, 0=no damage to plant, read-out: Corn damage rating; for plant injury at 250 g/ha: 250 g ai/ha
Method in brief: as §2

`Cc1cccc(NC(=O)[C@H]2C(=O)N(C)C[C@@H]2c2ccc(C(F)(F)F)cc2)[n+]1[O-]` (racemic) [Compound 1805] was tested, and the pest or weed control at 15.625 g/ha [1] was 0%, the pest or weed control at 62.5 g/ha [1] was 0% and the pest or weed control at 250 g/ha [1] was 0%. For the same compound, the pest or weed control at 15.625 g/ha [2] was 0%, the pest or weed control at 62.5 g/ha [2] was 30% and the pest or weed control at 250 g/ha [2] was 40%. It also gave a pest or weed control at 15.625 g/ha [3] of 0%, a pest or weed control at 62.5 g/ha [3] of 20% and a pest or weed control at 250 g/ha [3] of 30%. For the same compound, the pest or weed control at 15.625 g/ha [4] was 0%, the pest or weed control at 62.5 g/ha [4] was 30% and the pest or weed control at 250 g/ha [4] was 30%. It also gave a pest or weed control at 15.625 g/ha [5] of 10%, a pest or weed control at 62.5 g/ha [5] of 60% and a pest or weed control at 250 g/ha [5] of 40%. For the same compound, the plant injury at 15.625 g/ha (corn (Zea mays) [6]) was 0%, the plant injury at 62.5 g/ha (corn (Zea mays) [6]) was 0% and the plant injury at 250 g/ha (corn (Zea mays) [6]) was 0%. The pest or weed control at 15.625 g/ha [7] was 0%, the pest or weed control at 62.5 g/ha [7] was 0% and the pest or weed control at 250 g/ha [7] was 0%. The pest or weed control at 15.625 g/ha [8] was 0%, the pest or weed control at 62.5 g/ha [8] was 0% and the pest or weed control at 250 g/ha [8] was 10%. The pest or weed control at 15.625 g/ha [9] was 0%, the pest or weed control at 62.5 g/ha [9] was 20% and the pest or weed control at 250 g/ha [9] was 20%. The pest or weed control at 15.625 g/ha [10] was 0%, the pest or weed control at 62.5 g/ha [10] was 0% and the pest or weed control at 250 g/ha [10] was 0%. It also gave a pest or weed control at 15.625 g/ha [11] of 20%, a pest or weed control at 62.5 g/ha [11] of 10% and a pest or weed control at 250 g/ha [11] of 30%. It also gave a plant injury at 15.625 g/ha (corn (Zea mays) [12]) of 0%, a plant injury at 62.5 g/ha (corn (Zea mays) [12]) of 0% and a plant injury at 250 g/ha (corn (Zea mays) [12]) of 0%.

`CN1C[C@H](c2ccc(Cl)cc2)[C@@H](C(=O)Nc2cccnc2F)C1=O` [Compound 1810] was tested, and the pest or weed control at 15.625 g/ha [1] was 0%, the pest or weed control at 62.5 g/ha [1] was 60% and the pest or weed control at 250 g/ha [1] was 80%. It also gave a pest or weed control at 15.625 g/ha [2] of 20%, a pest or weed control at 62.5 g/ha [2] of 80% and a pest or weed control at 250 g/ha [2] of 80%. It also gave a pest or weed control at 15.625 g/ha [3] of 20%, a pest or weed control at 62.5 g/ha [3] of 30% and a pest or weed control at 250 g/ha [3] of 40%. The pest or weed control at 15.625 g/ha [4] was 20%, the pest or weed control at 62.5 g/ha [4] was 60% and the pest or weed control at 250 g/ha [4] was 20%. For the same compound, the pest or weed control at 15.625 g/ha [5] was 0%, the pest or weed control at 62.5 g/ha [5] was 10% and the pest or weed control at 250 g/ha [5] was 60%. For the same compound, the plant injury at 15.625 g/ha (corn (Zea mays) [6]) was 0%, the plant injury at 62.5 g/ha (corn (Zea mays) [6]) was 0% and the plant injury at 250 g/ha (corn (Zea mays) [6]) was 50%. It also gave a pest or weed control at 15.625 g/ha [7] of 60%, a pest or weed control at 62.5 g/ha [7] of 90% and a pest or weed control at 250 g/ha [7] of 90%. The pest or weed control at 15.625 g/ha [8] was 80%, the pest or weed control at 62.5 g/ha [8] was 90% and the pest or weed control at 250 g/ha [8] was 90%. It also gave a pest or weed control at 15.625 g/ha [9] of 0%, a pest or weed control at 62.5 g/ha [9] of 40% and a pest or weed control at 250 g/ha [9] of 70%. The pest or weed control at 15.625 g/ha [10] was 0%, the pest or weed control at 62.5 g/ha [10] was 30% and the pest or weed control at 250 g/ha [10] was 70%. The pest or weed control at 15.625 g/ha [11] was 0%, the pest or weed control at 62.5 g/ha [11] was 40% and the pest or weed control at 250 g/ha [11] was 80%. It also gave a plant injury at 15.625 g/ha (corn (Zea mays) [12]) of 20%, a plant injury at 62.5 g/ha (corn (Zea mays) [12]) of 30% and a plant injury at 250 g/ha (corn (Zea mays) [12]) of 90%.
